As usually defined, the IC50 is the concentration that inhibits the measured activity by half.

The target in the test is canine TRPM8 (Canis lupus familiaris, UniProt Q1A7N1). Nature of the test: In Vitro Canine TRPM8 Functional Assay (Ca2+ fluorescence, icilin activation). It counts as cell-based. The conditions noted are these: for IC50: HEK293 cells stably expressing canine TRPM8, icilin activation, eight-point dose-response, read-out: IC50; for inhibition at 0.2 µM / % Inh @ 0.2 (μM): compound at 0.2 μM, canine TRPM8, icilin activation; for inhibition at 0.2 µM: read-out: % Inh @ 0.2. An outline of the steps: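 Cells (HEK293, stable canine TRPM8) are seeded 24 h before assay. They are then dye-loaded with Calcium 3 at 37 °C followed by room temperature. Compound is added and monitored for 5 min, after which icilin (~80% maximal response) is added.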
Sequence of canine TRPM8 (Q1A7N1 1-1104): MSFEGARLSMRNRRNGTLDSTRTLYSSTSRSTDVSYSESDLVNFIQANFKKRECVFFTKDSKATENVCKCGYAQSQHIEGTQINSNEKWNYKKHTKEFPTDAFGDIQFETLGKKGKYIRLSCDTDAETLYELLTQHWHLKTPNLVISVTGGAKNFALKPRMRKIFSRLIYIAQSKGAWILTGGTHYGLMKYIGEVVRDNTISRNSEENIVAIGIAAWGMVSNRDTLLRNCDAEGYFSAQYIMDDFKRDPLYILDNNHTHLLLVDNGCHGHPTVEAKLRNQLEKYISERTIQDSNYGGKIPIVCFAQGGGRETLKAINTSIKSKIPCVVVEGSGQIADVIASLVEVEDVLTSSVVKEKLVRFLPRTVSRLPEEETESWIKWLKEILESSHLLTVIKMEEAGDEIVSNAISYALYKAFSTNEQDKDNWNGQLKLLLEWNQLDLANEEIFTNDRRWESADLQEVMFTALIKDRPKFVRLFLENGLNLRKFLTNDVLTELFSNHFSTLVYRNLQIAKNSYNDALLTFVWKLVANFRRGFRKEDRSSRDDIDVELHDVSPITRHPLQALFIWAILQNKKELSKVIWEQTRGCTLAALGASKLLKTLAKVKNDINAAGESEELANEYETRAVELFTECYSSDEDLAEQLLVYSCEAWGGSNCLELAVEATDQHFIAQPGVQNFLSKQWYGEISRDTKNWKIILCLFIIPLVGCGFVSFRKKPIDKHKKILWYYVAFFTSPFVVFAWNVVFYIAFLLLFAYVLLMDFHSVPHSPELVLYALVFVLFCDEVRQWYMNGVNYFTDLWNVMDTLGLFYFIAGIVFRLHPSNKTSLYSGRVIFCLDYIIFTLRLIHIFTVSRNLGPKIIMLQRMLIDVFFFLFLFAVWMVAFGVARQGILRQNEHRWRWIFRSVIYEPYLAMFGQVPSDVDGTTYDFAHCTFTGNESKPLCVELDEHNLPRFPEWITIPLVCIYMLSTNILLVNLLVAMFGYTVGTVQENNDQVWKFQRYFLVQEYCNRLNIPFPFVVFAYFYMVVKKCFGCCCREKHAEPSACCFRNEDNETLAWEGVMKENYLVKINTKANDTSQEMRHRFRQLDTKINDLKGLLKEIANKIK

Consider `Cc1c(N(CCCCC(F)(F)F)S(=O)(=O)CCC(=O)O)sc2ccccc12` [Compound 606, N-(3-Methyl-benzo[b]thiophen-2-yl)-N-(5,5,5-trifluoro-pentyl)-2-carboxy-ethanesulfonamide], for which the IC50 is 90.5 nM and the inhibition at 0.2 µM is 75%.

Regarding `O=S1NC(c2ccc(S(=O)(=O)N(CCC(F)(F)F)c3sc4ccccc4c3Br)cc2)=NO1` (centres unmarked) [Compound 607, N-(3-Bromo-benzo[b]thiophen-2-yl)-N-(3,3,3-trifluoro-propyl)-4-(3H-[1,2,3,5]oxathiadiazole-2-oxide)-benzenesulfonamide], the IC50 was determined as 36.8 nM and the “% Inh @ 0.2 (μM)” value stood at 101%.

As for `O=c1[nH]c(-c2ccc(S(=O)(=O)N(CCC(F)(F)F)c3sc4ccccc4c3Br)cc2)no1` [Compound 608, N-(3-Bromo-benzo[b]thiophen-2-yl)-N-(3,3,3-trifluoro-propyl)-4-(5-oxo-4,5-dihydro-[1,2,4]oxadiazol-3-yl)-benzenesulfonamide], the inhibition at 0.2 µM was determined as 101%.

Take `O=c1[nH]c(-c2ccc(S(=O)(=O)N(CCC(F)(F)F)c3sc4ccccc4c3Cl)cc2)no1` [Compound 609, N-(3-Chloro-benzo[b]thiophen-2-yl)-N-(3,3,3-trifluoro-propyl)-4-(5-oxo-4,5-dihydro-[1,2,4]oxadiazol-3-yl)-benzenesulfonamide]: the IC50 is 53.7 nM and the inhibition at 0.2 µM was 99%.

In the case of `O=S1NC(c2ccc(S(=O)(=O)N(CCC3CC3)c3cc4ccccc4s3)cc2)=NO1` (centres unmarked) [Compound 610, N-(Benzo[b]thiophen-2-yl)-N-(cyclopropyl-ethyl)-4-(3H-[1,2,3,5]oxathiadiazole-2-oxide)-benzenesulfonamide], the “% Inh @ 0.2 (μM)” value came out at 55%.

`Cc1c(N(CCC2CC2)S(=O)(=O)c2ccc(C3=NOS(=O)N3)cc2)sc2ccccc12` (centres unmarked) [Compound 611, N-(3-Methyl-benzo[b]thiophen-2-yl)-N-(cyclopropyl-ethyl)-4-(3H-[1,2,3,5]oxathiadiazole-2-oxide)-benzenesulfonamide]: the IC50 was 14.6 nM and the “% Inh @ 0.2 (μM)” value is 101%.

With `O=c1[nH]c(-c2ccc(S(=O)(=O)N(CCC3CC3)c3cc4ccccc4s3)cc2)no1` [Compound 612, N-(Benzo[b]thiophen-2-yl)-N-(cyclopropyl-ethyl)-4-(5-oxo-4,5-dihydro-[1,2,4]oxadiazol-3-yl)-benzenesulfonamide], the IC50 worked out at 53.7 nM and the inhibition at 0.2 µM was 97%.

In the case of `Cc1c(N(CCC2CC2)S(=O)(=O)c2ccc(-c3noc(=O)[nH]3)cc2)sc2ccccc12` [Compound 613, N-(3-Methyl-benzo[b]thiophen-2-yl)-N-(cyclopropyl-ethyl)-4-(5-oxo-4,5-dihydro-[1,2,4]oxadiazol-3-yl)-benzenesulfonamide], the IC50 was 6.6 nM and the inhibition at 0.2 µM stood at 101%.

In the case of `Cc1c(N(CCC2CC2)S(=O)(=O)c2ccccc2)sc2ccccc12` [Compound 614, N-(2-Cyclopropyl-ethyl)-N-(3-methyl-benzo[b]thiophen-2-yl)-benzenesulfonamide], the IC50 is 7.4 nM and the inhibition at 0.2 µM was found to be 101%.

As for `Cc1c(N(CCC(F)(F)F)S(=O)(=O)c2ccccc2)sc2ccccc12` [Compound 615, N-(3-Methyl-benzo[b]thiophen-2-yl)-N-(3,3,3-trifluoro-propyl)-benzenesulfonamide], the IC50 turned out to be 7.3 nM and the inhibition at 0.2 µM worked out at 101%.

With `Cc1c(N(CCCC(F)(F)F)S(=O)(=O)c2ccccc2)sc2ccccc12` [Compound 616, N-(3-Methyl-benzo[b]thiophen-2-yl)-N-(4,4,4-trifluoro-butyl)-benzenesulfonamide], the IC50 worked out at 12.8 nM and the inhibition at 0.2 µM is 101%.

As for `Cc1c(N(CCCCC(F)(F)F)S(=O)(=O)c2ccccc2)sc2ccccc12` [Compound 617, N-(3-Methyl-benzo[b]thiophen-2-yl)-N-(5,5,5-trifluoro-pentyl)-benzenesulfonamide], the IC50 was 7.4 nM and the inhibition at 0.2 µM was 101%.

Regarding `CC1=C(N(CCC2CC2)S(=O)(=O)c2ccccc2)S(=O)(=O)c2ccccc21` [Compound 618, N-(2-Cyclopropyl-ethyl)-N-(3-methyl-1,1-dioxo-benzo[b]thiophen-2-yl)-benzenesulfonamide], the IC50 came out at 10.4 nM and the inhibition at 0.2 µM was 101%.

With `CC1=C(N(CCC(F)(F)F)S(=O)(=O)c2ccccc2)S(=O)(=O)c2ccccc21` [Compound 619, N-(3-Methyl-1,1-dioxo-benzo[b]thiophen-2-yl)-N-(3,3,3-trifluoro-propyl)-benzenesulfonamide], the IC50 is 39.8 nM and the inhibition at 0.2 µM came to 101%.

Regarding `CC1=C(N(CCCC(F)(F)F)S(=O)(=O)c2ccccc2)S(=O)(=O)c2ccccc21` [Compound 620, N-(3-Methyl-1,1-dioxo-benzo[b]thiophen-2-yl)-N-(4,4,4-trifluoro-butyl)-benzenesulfonamide], the IC50 is 23.4 nM and the inhibition at 0.2 µM came out at 101%.

As to `CC1=C(N(CCCCC(F)(F)F)S(=O)(=O)c2ccccc2)S(=O)(=O)c2ccccc21` [Compound 621, N-(3-Methyl-1,1-dioxo-benzo[b]thiophen-2-yl)-N-(5,5,5-trifluoro-pentyl)-benzenesulfonamide], the IC50 worked out at 11 nM and the inhibition at 0.2 µM came to 101%.

On to `CC1=C(N(Cc2ccc(F)c(C(F)(F)F)c2)S(=O)(=O)c2ccccc2)S(=O)(=O)c2ccccc21` [Compound 622, N-(4-Fluoro-3-trifluoromethyl-benzyl)-N-(3-methyl-1,1-dioxo-benzo[b]thiophen-2-yl)-benzenesulfonamide], for which the IC50 was 31.3 nM and the inhibition at 0.2 µM was 89%.

Regarding `Cc1c(N(Cc2ccc(F)c(C(F)(F)F)c2)S(=O)(=O)c2ccc(C(=O)NS(C)(=O)=O)cc2)sc2ccccc12` [Compound 623, N-(3-Methyl-benzo[b]thiophen-2-yl)-N-(4-fluoro-3-trifluoromethyl-benzyl)-4-methanesulfonylaminocarbonyl-benzenesulfonamide], the IC50 was 7 nM and the inhibition at 0.2 µM was determined as 101%.

Consider `O=S1NC(c2ccc(S(=O)(=O)N(CCC3CC3)c3sc4ccccc4c3Br)cc2)=NO1` (centres unmarked) [Compound 624, N-(3-Bromo-benzo[b]thiophen-2-yl)-N-(cyclopropyl-ethyl)-4-(3H-[1,2,3,5]oxathiadiazole-2-oxide)-benzenesulfonamide], for which the IC50 was determined as 13.4 nM and the “% Inh @ 0.2 (μM)” value is 103%.

For `O=S1NC(c2ccc(S(=O)(=O)N(CCC3CC3)c3sc4ccccc4c3Cl)cc2)=NO1` (centres unmarked) [Compound 625, N-(3-Chloro-benzo[b]thiophen-2-yl)-N-(cyclopropyl-ethyl)-4-(3H-[1,2,3,5]oxathiadiazole-2-oxide)-benzenesulfonamide], the IC50 amounted to 20.4 nM and the “% Inh @ 0.2 (μM)” value is 103%.

On to `O=c1[nH]c(-c2ccc(S(=O)(=O)N(CCC3CC3)c3sc4ccccc4c3Br)cc2)no1` [Compound 626, N-(3-Bromo-benzo[b]thiophen-2-yl)-N-(cyclopropyl-ethyl)-4-(5-oxo-4,5-dihydro-[1,2,4]oxadiazol-3-yl)-benzenesulfonamide], for which the IC50 was determined as 7.4 nM and the inhibition at 0.2 µM was 103%.

For the molecule `O=c1[nH]c(-c2ccc(S(=O)(=O)N(CCC3CC3)c3sc4ccccc4c3Cl)cc2)no1` [Compound 627, N-(3-Chloro-benzo[b]thiophen-2-yl)-N-(cyclopropyl-ethyl)-4-(5-oxo-4,5-dihydro-[1,2,4]oxadiazol-3-yl)-benzenesulfonamide], the half-maximal inhibitory concentration (IC50) was 8.6 nM and the inhibition at 0.2 µM was determined as 103%.

Consider `COC(=O)c1ccc(S(=O)(=O)N(CCC2CC2)c2sc3ccccc3c2C)cc1` [Compound 628, N-(2-Cyclopropyl-ethyl)-N-(3-methyl-benzo[b]thiophen-2-yl)-4-carbomethoxy-benzenesulfonamide], for which the half-inhibitory concentration (IC50) was determined as 23.3 nM and the inhibition at 0.2 µM worked out at 103%.

In the case of `COC(=O)c1ccc(S(=O)(=O)N(CCC(F)(F)F)c2sc3ccccc3c2C)cc1` [Compound 629, N-(3-Methyl-benzo[b]thiophen-2-yl)-N-(3,3,3-trifluoro-propyl)-4-carbomethoxy-benzenesulfonamide], the IC50 was determined as 26.2 nM and the inhibition at 0.2 µM was found to be 103%.

For the molecule `COC(=O)c1ccc(S(=O)(=O)N(CCCC(F)(F)F)c2sc3ccccc3c2C)cc1` [Compound 630, N-(3-Methyl-benzo[b]thiophen-2-yl)-N-(4,4,4-trifluoro-butyl)-4-carbomethoxy-benzenesulfonamide], the IC50 came to 35.6 nM and the inhibition at 0.2 µM turned out to be 103%.

As to `COC(=O)c1ccc(S(=O)(=O)N(CCCCC(F)(F)F)c2sc3ccccc3c2C)cc1` [Compound 631, N-(3-Methyl-benzo[b]thiophen-2-yl)-N-(5,5,5-trifluoro-pentyl)-4-carbomethoxy-benzenesulfonamide], the IC50 turned out to be 26.3 nM and the inhibition at 0.2 µM is 103%.

Consider `CC1=C(N(CCC2CC2)S(=O)(=O)c2ccc(C(=O)O)cc2)S(=O)(=O)c2ccccc21` [Compound 632, N-(2-Cyclopropyl-ethyl)-N-(3-methyl-1,1-dioxo-benzo[b]thiophen-2-yl)-4-carboxy-benzenesulfonamide], for which the inhibition at 0.2 µM was 12%.

For `CC1=C(N(CCCCC(F)(F)F)S(=O)(=O)c2ccc(C(=O)O)cc2)S(=O)(=O)c2ccccc21` [Compound 633, N-(3-Methyl-1,1-dioxo-benzo[b]thiophen-2-yl)-N-(5,5,5-trifluoro-pentyl)-4-carboxy-benzenesulfonamide], the inhibition at 0.2 µM amounted to 17%.

Turning to `CC1=C(N(Cc2ccc(F)c(C(F)(F)F)c2)S(=O)(=O)c2ccc(C(=O)O)cc2)S(=O)(=O)c2ccccc21` [Compound 634, N-(4-Fluoro-3-trifluoromethyl-benzyl)-N-(3-methyl-1,1-dioxo-benzo[b]thiophen-2-yl)-4-carboxy-benzenesulfonamide], the inhibition at 0.2 µM worked out at 55%.

These data come from patent publication US9434711B2 (Janssen Pharmaceutica, NV, priority 2007, dated 2016).
